# According to US7794795B2, “Hybrid anti-fouling coating compositions and methods for preventing the fouling of surfaces subjected to a marine environment” (The Research Foundation of State University of New York, priority 2003, dated 2010):
# Assays:
# [1] = Thiol peroxidase activity: oxidation of PhSH with H2O2, stopped-flow; conditions: for k0, initial linear increase in absorbance: PhSH 1 × 10^−3 M, H2O2 3.75 × 10^−3 M, catalyst 1 × 10^−5 M, MeOH (5% CH2Cl2; 46% for 22), 276.8 K, 305 nm; for v0 (rel): relative to 23a = 1; for v0, initial rate of oxidation of PhSH: same conditions, k0 corrected for the uncatalyzed reaction
# Experimental: (§1) All stopped-flow experiments were performed on a SX18 Stopped-Flow Spectrometer (Applied Photophysics, Leatherhead, UK). The sample-handling unit was fitted with two drive syringes that are mounted inside a thermostatted-bath compartment, which allowed for variable temperature experimentation. The optical detection cell was set up in the 2-mm pathlength. First- and second-order curve fitting and rate constants used a Marquardt algorithm (Marquardt, J. Soc. Indust Appl. Mathematics, 11:431 et al. (1963), which is hereby incorporated by reference in its entirety) based on the routine Curfit (Bevington, Data Reduction and Error Analysis for the Physical Sciences, McGraw-Hill, New York (1969), which is hereby incorporated by reference in its entirety).
# Stock solutions of 2.0×10^−3 M of catalyst in CH2Cl2 and 5.0×10^−2 M PhSH in CH2Cl2 were prepared. These were diluted with MeOH to give a 5% CH2Cl21MeOH solution of 2.0×10^−5 M telluride and 2.0×10^−3 PhSH. A stock solution of 7.50×10^−3 M H2O2 in MeOH was prepared. These two solutions were mixed in the stopped-flow spectrometer to give concentrations of 1.0×10^−5 M telluride, 1.0×10^−3 M PhSH, and 3.75×10^−3 M H2O2 and the increase in absorbance at 305 nm was measured. The concentration of H2O2 in the stock solution was determined from the absorbance at 240 nm (E=43.6 cm^−1 M^−1) (Riley et al., Endocrinology, 128:1749 et al. (1991); Zhao et al., Biochemistry, 40:10832 et al. (2001), which are hereby incorporated by reference in their entirety). The values in Table 1 are the average of 7-10 independent runs (± standard deviation).
# In earlier work with dendrimeric organotelluride catalysts for the oxidation of halide salts with H2O2 (Francavilla et al., J. Am. Chem. Soc., 123:57 et al. (2001), which is hereby incorporated by reference in its entirety), a two-phase system of CH2Cl2 and pH-6 buffer was employed, which kept the catalysts and substrate in solution. In order to evaluate the catalysts in a homogeneous system, the method of Tomoda et al. (Iwaoka et al., J. Am. Chem. Soc., 116:2557 et al. (1994); Mugesh et al., J. Am. Chem. Soc., 123:839 et al. (2001), which are hereby incorporated by reference in their entirety) was employed to measure thiol peroxidase activity. In this procedure, thiophenol (PhSH) is oxidized to diphenyl disulfide (PhSSPh) using H2O2 as the oxidant. Catalytic activity was determined by the initial rates for the oxidation of PhSH (1.0×10^−3 M) with H2O2 (3.75×10^−3 M) in MeOH in the presence of a catalyst at a standard concentration of 1.0×10^−5 M.
# A 5% CH2Cl2/MeOH solution of catalyst (9, 15, 20, 23, or 24 at 2.0×10^−5M) and PhSH (2.0×10^−3 M) was mixed with an equal volume of a 5% CH2Cl21MeOH solution of H2O2 (7.5×10^−3 M) in a stopped-flow spectrophotometer at 276.8±0.4 K to give final concentrations of […] catalyst, 1.0×10^−3 M PhSH, and 3.75×10^−3M H2O2. The rate of appearance of PhSSPh, with a molar extinction coefficient, ε, of […] at 305 nm (Mugesh et al., J. Am. Chem. Soc., 123:839 et al. (2001), which is hereby incorporated by reference in its entirety), was monitored at 305 nm. The 5% CH2Cl2 was added to keep the tellurides/oxidized tellurides in solution during the course of the reaction. For hexatellurides 22, the percentage of CH2Cl2 was increased to 46% (by volume) in both solutions to keep the dendrimers in solution during the time-course of the analysis.
# A slow, uncatalyzed background reaction was observed upon mixing the two solutions in the stopped-flow spectrometer without added catalyst. Values of k0 were corrected for the uncatalyzed background reaction and converted to initial velocities, ν0, in units of […] min^−1 (Table 1). Values of ν0 as a function of the number of catalytic groups is plotted in FIG. 20.
# [2] = Oxidation of monotellurides with H2O2, stopped-flow, pseudo first-order; conditions: for observed rate constant for oxidation: 1.03×10^−3 M telluride, 1.03×10^−2 M H2O2, 276.8 K, 5% CH2Cl2/MeOH; for second-order rate constant for oxidation: same conditions
# Experimental: as §1
# Stock solutions of 2.06×10^−3M telluride and 2.06×10^−2 M H2O2 in 5% CH2Cl2/MeOH were prepared. These two solutions were mixed in the stopped-flow spectrometer to give concentrations of 1.03×10^−3M telluride and 1.03×10^−2 M H2O2 and the increase in absorbance at 325 nm for 23a, 350 nm for 23b, and 352 nm for 24 was measured as a function of time for 7-10 independent runs (1 standard deviation).
# The rates of oxidation of monotellurides 23 and 24 were followed in the stopped-flow spectrometer under pseudo first-order conditions. Final concentrations of 1.03×10^−3 M telluride and 1.03×10^−2 M H2O2 at 276.8±0.4 K gave observed rate constants for oxidation of (1.10±0.01)×10^−1 s^−1 for 23a, (3.62±0.02)×10^−1 s^−1 for 23b, and (4.5±0.4)×10^−1 for 24, which correspond to second-order rate constants of 10.7±0.1 M^−1 s^−1 for 23a, 35.1±0.2 M^−1 s^−1 for 23b, and 44±4 M^−1 s^−1 for 24.
Structure (SMILES),"k0, initial linear increase in absorbance [1]",v0 (rel) [1],"v0, initial rate of oxidation of PhSH [1]",observed rate constant for oxidation [2],second-order rate constant for oxidation [2]
"CCCCCC[Te]CCCCCC [compound 24, Di-n-hexyltelluride, reference compound]",(1.53 ± 0.09) × 10^−4 ΔA s^−1,3.0,(3.6 ± 0.2) × 10^1 μM min^−1,(4.5±0.4)×10^−1 s^−1,44 ± 4 M⁻¹ s⁻¹
"CCCCCC[Te]CCCOc1cc(COc2ccc(C(C)(c3ccc(OCc4cc(OCCC[Te]CCCCCC)cc(OCCC[Te]CCCCCC)c4)cc3)c3ccc(OCc4cc(OCCC[Te]CCCCCC)cc(OCCC[Te]CCCCCC)c4)cc3)cc2)cc(OCCC[Te]CCCCCC)c1 [22c, 1,1,1-Tris[4-(3,5-bis[3-(n-hexyltelluro)propyloxy]benzyloxy)phenyl]-ethane]",(1.30 ± 0.01) × 10^−3 ΔA s^−1,26,,,
"CN(C)c1ccc(CCCOc2cc(COc3ccc(C(C)(c4ccc(OCc5cc(OCCCc6ccc(N(C)C)cc6)cc(OCCCc6ccc(N(C)C)cc6)c5)cc4)c4ccc(OCc5cc(OCCCc6ccc(N(C)C)cc6)cc(OCCCc6ccc(N(C)C)cc6)c5)cc4)cc3)cc(OCCCc3ccc(N(C)C)cc3)c2)cc1 [22b, 1,1,1-Tris[4-(3,5-bis[3-(4-N,N-dimethylaminophenyl)propyloxy]benzyloxy)phenyl]ethane]",(5.6 ± 0.1) × 10^−4 ΔA s^−1,11,(1.34 ± 0.02) × 10^2 μM min^−1,,
"CN(C)c1ccc([Te]CCCOc2ccccc2)cc1 [compound 23b, 1-phenoxy-3-[4-(N,N-dimethylamino)phenyltelluro]propane]",(1.06 ± 0.05) × 10^−4 ΔA s^−1,2.1,(2.5 ± 0.1) × 10^1 μM min^−1,(3.62±0.02)×10^−1 s^−1,35.1 ± 0.2 M⁻¹ s⁻¹
"CCCCCC[Te]CCCOc1cc(COc2cc(CO)cc(OCc3cc(OCCC[Te]CCCCCC)cc(OCCC[Te]CCCCCC)c3)c2)cc(OCCC[Te]CCCCCC)c1 [20c, 3,5-Bis(3,5-bis[3-(n-hexyltelluro)propyloxy]benzyloxy)benzyl Alcohol]",(5.47 ± 0.07) × 10^−4 ΔA s^−1,11,(1.31 ± 0.01) × 10^2 μM min^−1,,
"CCCCCC[Te]CCCOc1cc(CO)cc(OCCC[Te]CCCCCC)c1OCCC[Te]CCCCCC [compound 15c, 3,4,5-Tris[3-(n-hexyltelluro)propyloxy]benzyl Alcohol]",(4.00 ± 0.05) × 10^−4 ΔA s^−1,7.9,(9.5 ± 0.1) × 10^1 μM min^−1,,
"OCc1cc(OCCC[Te]c2ccccc2)c(OCCC[Te]c2ccccc2)c(OCCC[Te]c2ccccc2)c1 [compound 15a, 3,4,5-Tris[3-(phenyltelluro)propyloxy]benzyl Alcohol]",(1.14 ± 0.02) × 10^−4 ΔA s^−1,2.2,(2.66 ± 0.05) × 10^1 μM min^−1,,
"CN(C)c1ccc([Te]CCCOc2cc(COc3cc(CO)cc(OCc4cc(OCCC[Te]c5ccc(N(C)C)cc5)cc(OCCC[Te]c5ccc(N(C)C)cc5)c4)c3)cc(OCCC[Te]c3ccc(N(C)C)cc3)c2)cc1 [compound 20b, 3,5-Bis(3,5-bis[3-(4-dimethylaminophenyltelluro)propyloxy]benzyloxy)benzyl Alcohol]",(3.13 ± 0.05) × 10^−4 ΔA s^−1,6.3,(7.4 ± 0.1) × 10^1 μM min^−1,,
"OCc1cc(OCc2cc(OCCC[Te]c3ccccc3)cc(OCCC[Te]c3ccccc3)c2)cc(OCc2cc(OCCC[Te]c3ccccc3)cc(OCCC[Te]c3ccccc3)c2)c1 [compound 20a, 3,5-Bis(3,5-bis[3-(phenyltelluro)propyloxy]benzyloxy)benzyl Alcohol]",(1.81 ± 0.05) × 10^−4 ΔA s^−1,3.6,(4.3 ± 0.1) × 10^1 μM min^−1,,
"CN(C)c1ccc([Te]CCCOc2cc(CO)cc(OCCC[Te]c3ccc(N(C)C)cc3)c2OCCC[Te]c2ccc(N(C)C)cc2)cc1 [15b, 3,4,5-Tris[3-(4-dimethylaminophenyltelluro)propyloxy]benzyl Alcohol]",(3.15 ± 0.03) × 10^−4 ΔA s^−1,6.3,(7.49 ± 0.07) × 10^1 μM min^−1,,
"CCCCCC[Te]CCCOc1cc(CO)cc(OCCC[Te]CCCCCC)c1 [compound 9c, 3,5-Bis[3-(n-hexyltelluro)propyloxy]benzyl Alcohol]",(2.90 ± 0.06) × 10^−4- ΔA s^−1,5.8,(6.9 ± 0.1) × 10^1 μM min^−1,,
"OCc1cc(OCCC[Te]c2ccccc2)cc(OCCC[Te]c2ccccc2)c1 [compound 9a, 3,5-Bis[3-(phenyltelluro)propyloxy]benzyl Alcohol]",(8.8 ± 0.5) × 10^−5 ΔA s^−1,1.7,(2.0 ± 0.1) × 10^1 μM min^−1,,
"CN(C)c1ccc([Te]CCCOc2cc(CO)cc(OCCC[Te]c3ccc(N(C)C)cc3)c2)cc1 [9b, 3,5-Bis[3-(4-dimethylaminophenyltelluro)propyloxy]benzyl Alcohol]",(1.69 ± 0.05) × 10^−4 ΔA s^−1,3.3,(4.0 ± 0.1) × 10^1 μM min^−1,,
"c1ccc(OCCC[Te]c2ccccc2)cc1 [compound 23a, 1-Phenoxy-3-(phenyltelluro)propane]",(5.3 ± 0.4) × 10^−5 ΔA s^−1,1,,(1.10±0.01)×10^−1 s^−1,10.7 ± 0.1 M⁻¹ s⁻¹
